Values quoted from earlier work, collected in patent US20230349886A1, “SYSTEMS AND METHODS FOR PREDICTING CARDIOTOXICITY OF MOLECULAR PARAMETERS OF A COMPOUND BASED ON MACHINE LEARNING ALGORITHMS” (UTI Limited Partnership, priority 2015, published 2023).
Read-outs that look alike come from different tables or passages of the source. Peptide text beside a SMILES is read from it.

Tests used:
Nav1.5 [1] = molecular target: T1, Nav1.5 (Homo sapiens, UniProt Q14524); conditions: Nav1.5 training/test/validation set; 92 actives and 860 inactive compounds; 1 = active
[2] = for Free drug: experimental data file, Kramer et al. 2013
[3] = Brown dataset; flag given as 1 or 0
Cav1.2 = Cav1.2 (Homo sapiens, UniProt Q13936); conditions: for CAV1p2-maxinhib: maximal inhibition
Cav1.2, sequence (Q13936 1-2138 isoform Q13936-12): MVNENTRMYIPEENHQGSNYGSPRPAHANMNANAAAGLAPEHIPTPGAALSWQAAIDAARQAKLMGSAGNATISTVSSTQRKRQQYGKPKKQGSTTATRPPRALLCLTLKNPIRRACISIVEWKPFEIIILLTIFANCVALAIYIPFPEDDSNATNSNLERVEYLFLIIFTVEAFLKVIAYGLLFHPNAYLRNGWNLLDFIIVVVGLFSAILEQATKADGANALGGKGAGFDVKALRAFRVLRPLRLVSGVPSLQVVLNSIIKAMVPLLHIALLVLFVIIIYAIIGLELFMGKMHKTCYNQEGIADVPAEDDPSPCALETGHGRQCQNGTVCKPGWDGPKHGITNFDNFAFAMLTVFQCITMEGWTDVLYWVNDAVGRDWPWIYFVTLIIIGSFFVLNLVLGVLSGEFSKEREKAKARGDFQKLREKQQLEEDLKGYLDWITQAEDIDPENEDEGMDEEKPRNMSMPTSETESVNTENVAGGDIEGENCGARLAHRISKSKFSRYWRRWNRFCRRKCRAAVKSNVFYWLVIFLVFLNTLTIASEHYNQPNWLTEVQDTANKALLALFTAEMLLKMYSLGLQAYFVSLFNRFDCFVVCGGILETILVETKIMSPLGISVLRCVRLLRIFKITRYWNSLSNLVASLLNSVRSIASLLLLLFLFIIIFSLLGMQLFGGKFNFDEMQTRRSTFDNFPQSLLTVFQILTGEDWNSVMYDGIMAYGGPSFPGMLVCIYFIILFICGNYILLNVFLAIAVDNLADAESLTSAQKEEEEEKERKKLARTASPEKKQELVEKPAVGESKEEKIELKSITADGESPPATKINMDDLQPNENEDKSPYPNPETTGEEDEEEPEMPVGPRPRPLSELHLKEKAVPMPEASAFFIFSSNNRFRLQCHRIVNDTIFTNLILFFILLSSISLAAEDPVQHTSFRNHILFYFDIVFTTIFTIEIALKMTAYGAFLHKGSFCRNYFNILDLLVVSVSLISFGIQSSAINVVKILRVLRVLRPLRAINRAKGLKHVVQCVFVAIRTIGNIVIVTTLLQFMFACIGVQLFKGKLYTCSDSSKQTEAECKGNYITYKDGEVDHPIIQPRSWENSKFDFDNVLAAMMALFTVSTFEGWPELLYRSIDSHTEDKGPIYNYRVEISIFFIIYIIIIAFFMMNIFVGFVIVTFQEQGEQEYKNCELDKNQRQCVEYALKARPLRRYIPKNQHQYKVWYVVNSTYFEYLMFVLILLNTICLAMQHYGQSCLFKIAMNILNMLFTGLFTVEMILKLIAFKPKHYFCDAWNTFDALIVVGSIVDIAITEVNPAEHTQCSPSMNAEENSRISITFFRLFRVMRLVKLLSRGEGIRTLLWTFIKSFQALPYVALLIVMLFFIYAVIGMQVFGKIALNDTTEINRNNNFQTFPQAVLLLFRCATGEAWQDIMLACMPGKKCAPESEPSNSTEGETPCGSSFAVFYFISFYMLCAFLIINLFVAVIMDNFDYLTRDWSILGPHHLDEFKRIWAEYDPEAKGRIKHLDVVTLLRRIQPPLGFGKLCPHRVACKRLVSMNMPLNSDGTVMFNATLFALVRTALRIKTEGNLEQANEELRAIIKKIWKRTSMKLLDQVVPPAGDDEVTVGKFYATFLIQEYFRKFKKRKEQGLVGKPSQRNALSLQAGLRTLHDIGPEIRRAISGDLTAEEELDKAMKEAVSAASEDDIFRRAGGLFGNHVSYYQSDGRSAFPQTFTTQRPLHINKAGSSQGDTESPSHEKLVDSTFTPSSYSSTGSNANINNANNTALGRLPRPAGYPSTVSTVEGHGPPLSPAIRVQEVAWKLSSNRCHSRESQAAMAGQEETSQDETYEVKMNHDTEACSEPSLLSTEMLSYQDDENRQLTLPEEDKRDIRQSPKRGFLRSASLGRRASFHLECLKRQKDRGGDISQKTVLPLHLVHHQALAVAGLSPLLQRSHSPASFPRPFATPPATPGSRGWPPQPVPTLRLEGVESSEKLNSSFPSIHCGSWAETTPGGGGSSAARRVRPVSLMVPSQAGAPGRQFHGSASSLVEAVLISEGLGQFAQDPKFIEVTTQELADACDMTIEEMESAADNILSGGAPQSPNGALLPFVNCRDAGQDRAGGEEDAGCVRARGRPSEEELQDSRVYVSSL
Cav1.2, sequence (Q08289 whole entry partner): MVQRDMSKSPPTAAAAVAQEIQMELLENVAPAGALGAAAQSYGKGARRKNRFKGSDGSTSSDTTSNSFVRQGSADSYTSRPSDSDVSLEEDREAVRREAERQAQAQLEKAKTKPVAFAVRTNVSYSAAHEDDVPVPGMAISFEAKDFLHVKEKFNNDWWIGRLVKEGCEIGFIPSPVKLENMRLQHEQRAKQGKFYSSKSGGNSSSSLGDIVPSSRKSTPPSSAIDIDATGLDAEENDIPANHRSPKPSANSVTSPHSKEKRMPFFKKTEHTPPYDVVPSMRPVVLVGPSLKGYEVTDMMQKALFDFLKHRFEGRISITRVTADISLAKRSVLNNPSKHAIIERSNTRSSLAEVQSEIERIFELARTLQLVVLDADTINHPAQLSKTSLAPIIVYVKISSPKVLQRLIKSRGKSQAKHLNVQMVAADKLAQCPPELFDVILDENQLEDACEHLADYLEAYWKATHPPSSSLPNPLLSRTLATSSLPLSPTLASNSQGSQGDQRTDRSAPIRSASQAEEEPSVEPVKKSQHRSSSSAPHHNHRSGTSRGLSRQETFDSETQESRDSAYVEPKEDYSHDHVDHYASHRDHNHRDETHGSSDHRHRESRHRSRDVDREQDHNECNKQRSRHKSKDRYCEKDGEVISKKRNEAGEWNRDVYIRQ
Cav1.2, sequence (P54289 25-946 partner limits assumed): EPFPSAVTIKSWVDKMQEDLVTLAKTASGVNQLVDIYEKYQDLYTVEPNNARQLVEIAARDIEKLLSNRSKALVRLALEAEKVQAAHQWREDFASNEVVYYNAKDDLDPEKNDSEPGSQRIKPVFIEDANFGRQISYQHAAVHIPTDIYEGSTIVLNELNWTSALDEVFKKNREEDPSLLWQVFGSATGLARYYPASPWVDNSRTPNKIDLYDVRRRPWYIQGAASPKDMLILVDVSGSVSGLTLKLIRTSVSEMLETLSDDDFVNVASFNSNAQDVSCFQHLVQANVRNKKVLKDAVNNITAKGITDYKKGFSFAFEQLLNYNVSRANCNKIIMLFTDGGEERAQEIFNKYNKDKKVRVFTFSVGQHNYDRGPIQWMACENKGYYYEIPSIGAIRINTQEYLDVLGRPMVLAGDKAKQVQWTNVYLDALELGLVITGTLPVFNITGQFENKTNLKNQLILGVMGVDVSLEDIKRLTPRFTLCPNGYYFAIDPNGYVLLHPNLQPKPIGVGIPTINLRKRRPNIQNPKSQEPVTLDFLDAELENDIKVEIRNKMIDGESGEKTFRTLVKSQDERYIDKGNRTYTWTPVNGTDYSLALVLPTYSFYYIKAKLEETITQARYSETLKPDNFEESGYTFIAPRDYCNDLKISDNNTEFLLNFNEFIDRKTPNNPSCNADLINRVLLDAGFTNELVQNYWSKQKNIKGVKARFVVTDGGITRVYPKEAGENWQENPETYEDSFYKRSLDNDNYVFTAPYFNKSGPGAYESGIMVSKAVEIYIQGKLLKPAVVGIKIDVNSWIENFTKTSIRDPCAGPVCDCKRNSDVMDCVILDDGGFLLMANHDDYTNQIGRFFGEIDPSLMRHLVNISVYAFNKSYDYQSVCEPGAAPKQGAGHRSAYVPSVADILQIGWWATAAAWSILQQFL
Cav1.2, sequence (P54289 947-1103 partner limits assumed): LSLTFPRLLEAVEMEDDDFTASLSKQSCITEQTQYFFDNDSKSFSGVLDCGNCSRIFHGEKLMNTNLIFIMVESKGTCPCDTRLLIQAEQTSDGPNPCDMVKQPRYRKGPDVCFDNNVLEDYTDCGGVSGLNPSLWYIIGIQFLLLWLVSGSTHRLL

Nav1.5 [4] = molecular target: T1, Nav1.5
Nav1.5 [5] = molecular target: Nav1.5 (Homo sapiens, UniProt Q14524, S234P/V215L)
hERG = hERG (Homo sapiens, UniProt Q12809); conditions: for HERG-maxinhib: maximal inhibition
hERG, sequence (Q12809 whole entry): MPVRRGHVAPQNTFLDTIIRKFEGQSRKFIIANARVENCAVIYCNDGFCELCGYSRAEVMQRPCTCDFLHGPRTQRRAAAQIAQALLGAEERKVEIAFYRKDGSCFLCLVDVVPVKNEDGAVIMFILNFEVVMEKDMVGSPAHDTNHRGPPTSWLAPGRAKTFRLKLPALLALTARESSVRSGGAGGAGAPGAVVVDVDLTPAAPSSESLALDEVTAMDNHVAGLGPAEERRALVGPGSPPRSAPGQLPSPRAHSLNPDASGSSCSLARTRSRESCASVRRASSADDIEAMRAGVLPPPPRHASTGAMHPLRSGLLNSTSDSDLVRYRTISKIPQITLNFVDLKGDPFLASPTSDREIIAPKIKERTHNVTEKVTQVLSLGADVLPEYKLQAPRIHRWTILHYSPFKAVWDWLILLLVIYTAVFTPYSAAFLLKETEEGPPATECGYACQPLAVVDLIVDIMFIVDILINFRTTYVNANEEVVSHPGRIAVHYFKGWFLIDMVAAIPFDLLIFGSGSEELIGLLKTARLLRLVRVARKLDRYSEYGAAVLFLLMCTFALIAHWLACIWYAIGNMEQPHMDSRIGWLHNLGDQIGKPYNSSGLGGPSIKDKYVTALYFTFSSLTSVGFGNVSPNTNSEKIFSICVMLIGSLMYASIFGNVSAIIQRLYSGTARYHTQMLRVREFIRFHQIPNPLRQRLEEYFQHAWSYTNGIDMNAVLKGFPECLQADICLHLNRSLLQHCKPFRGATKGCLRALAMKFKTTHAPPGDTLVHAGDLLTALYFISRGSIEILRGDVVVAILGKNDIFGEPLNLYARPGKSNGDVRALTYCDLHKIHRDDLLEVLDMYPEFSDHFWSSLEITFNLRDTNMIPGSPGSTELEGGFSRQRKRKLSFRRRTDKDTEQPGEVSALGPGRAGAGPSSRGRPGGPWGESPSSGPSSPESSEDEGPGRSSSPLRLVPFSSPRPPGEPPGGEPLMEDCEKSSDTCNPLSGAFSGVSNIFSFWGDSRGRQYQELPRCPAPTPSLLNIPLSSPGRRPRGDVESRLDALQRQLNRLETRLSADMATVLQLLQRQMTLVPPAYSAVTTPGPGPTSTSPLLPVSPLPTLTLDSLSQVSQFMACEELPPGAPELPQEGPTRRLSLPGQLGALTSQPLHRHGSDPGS

[6] = Table 11, calculated from HERG-IC50 of the Kramer et al. 2013 data
[7] = experimental data, Kramer et al. 2013
[8] = read-out: HERG IC50, Brown dataset
[9] = read-out: HERG-IC50, experimental data, Kramer et al. 2013
[10] = read-out: CAV1p2-IC50, experimental data, Kramer et al. 2013
[11] = read-out: CAV1.2 IC50, Brown dataset
[12] = maximal inhibition, Kramer et al. 2013
[13] = read-out: NAV1p5-IC50, experimental data, Kramer et al. 2013
[14] = read-out: NAV1.5 IC50, Brown dataset
[15] = Brown dataset, negative log of free drug concentration

In the case of `CCCCCC=C(c1cc(Cl)c(OC)c(C(=O)O)c1)c1cc(Cl)c(OC)c(C(=O)O)c1` [CHEMBL111622], the activity (Nav1.5 [1]) is listed as 1.
For `CC(C)[C@H](NC(=O)CN)C(=O)N[C@@H](CCC(N)=O)C(=O)O` [CHEMBL123454] (H-Gly-Val-Gln-OH), the activity (Nav1.5 [1]) is given as 1.
For `CCCCCC=C(c1cc(C)c(OC)c(C(=O)OC)c1)c1cc(C)c(OC)c(C(=O)OC)c1` [CHEMBL335768], the activity (Nav1.5 [1]) is listed as 1.
For `O=C(O)CCCCCC/C=C/CO` [CHEMBL458520], the activity (Nav1.5 [1]) is listed as 1.
In the case of `NC(=S)Nc1cccc(OCCCCCN2CCN(c3ccccc3-c3ccccc3)C2=S)c1` [CHEMBL569085], the activity (Nav1.5 [1]) is given as “Found 92 actives and 860 inactive compounds. 952 CHEMBL569085 1”.
For `CCCCc1oc2ccccc2c1C(=O)c1cc(I)c(OCCN(CC)CC)c(I)c1` [amiodarone], the “Free drug” value [2] is given as 0.0008 µM and the pFD ([2]; negative log of free drug) is given as 9.097.
In the case of `COc1ccc(CCN2CCC(Nc3nc4ccccc4n3Cc3ccc(F)cc3)CC2)cc1` [astemizole], the “Ris (TdP risk flag)” value [3] is listed as 1, the “Free drug” value [2] is listed as 0.0003 µM and the pFD ([2]; negative log of free drug) is listed as 9.523.
In the case of `CC(C)COCC(CN(Cc1ccccc1)c1ccccc1)N1CCCC1` (stereo not drawn) [bepridil], the CAV1.2 max inhib (Cav1.2; Brown dataset) is given as 95.7, the CAV1p2-maxinhib (Cav1.2; Kramer et al. 2013) is given as 95.7 and the IC50 (Nav1.5 [4]) is given as 2.3 µM. For the same compound, the NAV1p5-maxinhib (Nav1.5 [4]) was 100, the NAV1p5-pIC50 (Nav1.5 [4]) was 5.638 and the NAV1.5 max inhib (Nav1.5 [4]) was 100. For the same compound, the “NAV1.5 pIC50” value (Nav1.5 [5]) was 5.6382 164, the “Ris (TdP risk flag)” value [3] was 1 and the “Free drug” value [2] was 0.035 µM. For the same compound, the pFD ([2]; negative log of free drug) was 7.456.
In the case of `CO/N=C(\C(=O)N[C@@H]1C(=O)N2C(C(=O)O)=C(CSc3nc(=O)c(=O)[nH]n3C)CS[C@H]12)c1csc(N)n1` [ceftriaxone], the “HERG maxInhib” value (hERG; Brown dataset) is listed as 7.5, the pIC50 (hERG; [6]) is listed as 3.351 and the HERG-pIC50 (hERG; [7]) is listed as 3.351. For the same compound, the HERG-maxinhib (hERG; Kramer et al. 2013) was 7.5, the IC50 (hERG; [8]) was 445 µM and the IC50 (hERG; [9]) was 446 µM. For the same compound, the CAV1.2 max inhib (Cav1.2; Brown dataset) was 38.8, the CAV1p2-pIC50 (Cav1.2; [7]) was 3.813 and the CAV1p2-maxinhib (Cav1.2; Kramer et al. 2013) was 38.8. For the same compound, the IC50 (Cav1.2; [10]) was 154 µM, the IC50 (Cav1.2; [11]) was 154 µM and the NAV1.5 max inhib (Nav1.5 [4]; Brown dataset) was 14.3. For the same compound, the NAV1p5-pIC50 (Nav1.5 [4]; [7]) was 3.255, the NAV1p5-maxinhib (Nav1.5 [4]; [12]) was 14.3 and the IC50 (Nav1.5 [4]; [13]) was 556 µM. The IC50 (Nav1.5 [4]; [14]) was 555 µM, the “Ris (TdP risk flag)” value [3] was 0 and the “Free drug” value [2] was 23.17 µM. The pFD ([2]; negative log of free drug) was 4.635.
In the case of `Cc1nc(Nc2ncc(C(=O)Nc3c(C)cccc3Cl)s2)cc(N2CCN(CCO)CC2)n1` [dasatinib], the “HERG maxInhib” value (hERG; Brown dataset) is listed as 86.6, the CAV1.2 max inhib (Cav1.2; Brown dataset) is listed as 52.2 and the NAV1.5 max inhib (Nav1.5 [4]; Brown dataset) is listed as 58.9. The “Ris (TdP risk flag)” value [3] was 0 and the pFD [2, 15] was 1.387 ^-1614.
In the case of `CCCCCCCN(CC)CCCC(O)c1ccc(NS(C)(=O)=O)cc1` (stereo not drawn) [ibutilide], the CAV1.2 max inhib (Cav1.2; Brown dataset) is given as 85.2, the “CAV1.2 pIC50” value (Cav1.2; Brown dataset) is given as 4.2041 and the IC50 (Cav1.2; [11]) is given as 62.5 µM. The NAV1.5 max inhib (Nav1.5 [4]; Brown dataset) was 87.9, the IC50 (Nav1.5 [4]; [14]) was 42.5 µM and the “NAV1.5 pIC50” value (Nav1.5 [5]; Brown dataset) was 4.3716. The “Ris (TdP risk flag)” value [3] was 1, the Free drug concentration ([2]; Brown dataset) was 140 nM and the pFD [2, 15] was 6.853.
In the case of `Fc1ccc([C@@H]2CCNC[C@H]2COc2ccc3c(c2)OCO3)cc1` [paroxetine], the “HERG maxInhib” value (hERG; Brown dataset) is listed as 99.5, the CAV1.2 max inhib (Cav1.2) is listed as 98.5 and the “CAV1.2 pIC50” value (Cav1.2) is listed as 5.409 393. The IC50 (Cav1.2) was 3.9 µM, the IC50 (Nav1.5 [4]) was 9.8 µM and the NAV1.5 max inhib (Nav1.5 [4]) was 93.7. The “NAV1.5 pIC50” value (Nav1.5 [5]) was 5.009 924 and the “Ris (TdP risk flag)” value [3] was 1.
For `O=C1NC(=O)C(c2ccccc2)(c2ccccc2)N1` [phenytoin], the “HERG maxInhib” value (hERG) is listed as 16.4, the CAV1.2 max inhib (Cav1.2; Brown dataset) is listed as 91.7 and the IC50 (Cav1.2; [11]) is listed as 21.9 µM. The NAV1.5 max inhib (Nav1.5 [4]; Brown dataset) was 59.3, the IC50 (Nav1.5 [4]; [14]) was 72.4 µM and the “Ris (TdP risk flag)” value [3] was 0. For the same compound, the Free drug concentration ([2]; Brown dataset) was 4360 nM.
In the case of `NC(=O)c1ncn([C@@H]2O[C@H](CO)[C@@H](O)[C@H]2O)n1` [ribavirin], the “HERG maxInhib” value (hERG; Brown dataset) is listed as 21.4, the pIC50 (hERG; [6]) is listed as 3.015 and the IC50 (hERG; [8]) is listed as 967 µM. For the same compound, the CAV1.2 max inhib (Cav1.2; Brown dataset) was 31.9, the IC50 (Cav1.2; [11]) was 622 µM and the NAV1.5 max inhib (Nav1.5 [4]; Brown dataset) was 6.9. The IC50 (Nav1.5 [4]; [14]) was 3000 µM and the “Ris (TdP risk flag)” value [3] was 0.
For `Cc1nc2n(c(=O)c1CCN1CCC(c3noc4cc(F)ccc34)CC1)CCCC2` [risperidone], the “HERG maxInhib” value (hERG; Brown dataset) is given as 79.7, the “Ris (TdP risk flag)” value [3] is given as 1 and the Free drug concentration ([2]; Brown dataset) is given as 0 nM.
For `N[C@@H](CC(=O)N1CCn2c(nnc2C(F)(F)F)C1)Cc1cc(F)c(F)cc1F` [sitagliptin], the “HERG maxInhib” value (hERG; Brown dataset) is listed as 35.6, the CAV1.2 max inhib (Cav1.2; Brown dataset) is listed as 35.8 and the IC50 (Cav1.2; [11]) is listed as 147 µM. For the same compound, the NAV1.5 max inhib (Nav1.5 [4]; Brown dataset) was 18.3, the IC50 (Nav1.5 [4]; [14]) was 1220 µM and the “Ris (TdP risk flag)” value [3] was 0.
For `C[C@@H]1CN(c2c(F)c(N)c3c(=O)c(C(=O)O)cn(C4CC4)c3c2F)C[C@H](C)N1` [sparfloxacin], the “HERG maxInhib” value (hERG) is given as 81.5, the “HERG pIC50” value (hERG) is given as 4.656 726 and the IC50 (hERG) is given as 22.1 µM. For the same compound, the pIC50 (hERG) was 4.656, the CAV1.2 max inhib (Cav1.2; Brown dataset) was 50.3 and the IC50 (Cav1.2; [11]) was 88.8 µM. The NAV1.5 max inhib (Nav1.5 [4]; Brown dataset) was 0.8, the IC50 (Nav1.5 [4]; [14]) was 2560 µM and the “Ris (TdP risk flag)” value [3] was 1.
For chlorpromazine, the pIC50 (hERG; [6]) is given as 5.824, the HERG-pIC50 (hERG; [7]) is given as 5.824 and the HERG-maxinhib (hERG; Kramer et al. 2013) is given as 96.7. For the same compound, the IC50 (hERG; [9]) was 1.5 µM, the CAV1p2-pIC50 (Cav1.2; [7]) was 5.469 and the CAV1p2-maxinhib (Cav1.2; Kramer et al. 2013) was 99.2. For the same compound, the IC50 (Cav1.2; [10]) was 3.4 µM, the NAV1p5-pIC50 (Nav1.5 [4]; [7]) was 5.523 and the NAV1p5-maxinhib (Nav1.5 [4]; [12]) was 97.1. The IC50 (Nav1.5 [4]; [13]) was 3 µM, the “Free drug” value [2] was 0.038 µM and the pFD ([2]; negative log of free drug) was 7.42.
In the case of cilostazol, the “HERG maxInhib” value (hERG; Brown dataset) is given as 65.9, the pIC50 (hERG; [6]) is given as 4.86 and the IC50 (hERG; [8]) is given as 13.8 µM. For the same compound, the CAV1.2 max inhib (Cav1.2; Brown dataset) was 24.6, the IC50 (Cav1.2; [11]) was 91.2 µM and the NAV1.5 max inhib (Nav1.5 [4]; Brown dataset) was 22.9. The IC50 (Nav1.5 [4]; [14]) was 93.7 µM and the “Ris (TdP risk flag)” value [3] was 1.
